From ChEMBL document CHEMBL1201862, “PubChem BioAssay data set” (2004) come the findings set out here.

Test [1] has as its target T1, Replicative DNA helicase DnaB (Mycobacterium tuberculosis, UniProt P9WMR3).
T1 sequence (P9WMR3 whole entry): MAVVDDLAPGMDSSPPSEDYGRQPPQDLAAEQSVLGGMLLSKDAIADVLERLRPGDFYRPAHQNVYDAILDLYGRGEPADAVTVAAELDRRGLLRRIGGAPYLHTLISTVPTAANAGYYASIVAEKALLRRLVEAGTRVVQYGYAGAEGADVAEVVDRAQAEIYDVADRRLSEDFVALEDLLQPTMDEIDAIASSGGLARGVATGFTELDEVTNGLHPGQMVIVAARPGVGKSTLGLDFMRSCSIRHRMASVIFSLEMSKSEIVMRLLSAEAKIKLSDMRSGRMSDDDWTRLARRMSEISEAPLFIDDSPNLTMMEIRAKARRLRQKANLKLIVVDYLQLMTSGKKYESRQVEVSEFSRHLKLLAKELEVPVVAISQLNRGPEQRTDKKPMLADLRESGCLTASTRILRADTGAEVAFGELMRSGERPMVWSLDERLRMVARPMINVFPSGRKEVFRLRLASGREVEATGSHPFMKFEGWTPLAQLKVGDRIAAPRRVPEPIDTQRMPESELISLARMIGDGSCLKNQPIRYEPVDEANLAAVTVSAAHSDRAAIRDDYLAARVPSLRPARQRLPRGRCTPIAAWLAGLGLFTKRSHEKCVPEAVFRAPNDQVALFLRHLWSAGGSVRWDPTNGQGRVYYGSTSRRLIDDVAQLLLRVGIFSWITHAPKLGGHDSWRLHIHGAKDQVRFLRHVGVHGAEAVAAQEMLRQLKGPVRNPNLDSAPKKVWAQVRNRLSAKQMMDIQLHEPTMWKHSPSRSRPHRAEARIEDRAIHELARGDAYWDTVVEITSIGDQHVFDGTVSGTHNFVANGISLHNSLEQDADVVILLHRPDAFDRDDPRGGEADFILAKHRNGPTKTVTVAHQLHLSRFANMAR
In words: DnaB intein splicing inhibitors, dose response, biochemical, cell-free fluorescence (AID 449749). The class given is functional.

The target in test [2] is T2, High affinity choline transporter 1 (Homo sapiens, UniProt Q9GZV3).
T2 sequence (Q9GZV3 whole entry): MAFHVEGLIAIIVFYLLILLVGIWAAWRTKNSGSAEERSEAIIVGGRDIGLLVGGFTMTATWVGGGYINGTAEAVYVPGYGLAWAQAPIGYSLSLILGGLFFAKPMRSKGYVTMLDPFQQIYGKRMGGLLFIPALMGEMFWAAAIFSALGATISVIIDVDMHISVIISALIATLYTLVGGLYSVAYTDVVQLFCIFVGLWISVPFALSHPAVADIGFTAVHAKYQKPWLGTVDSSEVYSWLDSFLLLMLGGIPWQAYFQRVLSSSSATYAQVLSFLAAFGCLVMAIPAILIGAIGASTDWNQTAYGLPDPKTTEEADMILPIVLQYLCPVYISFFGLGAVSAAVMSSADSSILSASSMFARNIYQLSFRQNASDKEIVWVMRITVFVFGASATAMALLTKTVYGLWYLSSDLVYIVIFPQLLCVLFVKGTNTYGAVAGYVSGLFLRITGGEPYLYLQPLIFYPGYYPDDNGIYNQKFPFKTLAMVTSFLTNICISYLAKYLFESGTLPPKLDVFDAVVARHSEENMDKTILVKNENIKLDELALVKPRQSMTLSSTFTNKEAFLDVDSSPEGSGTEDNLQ
In words: CHT inhibitors, dose response, cell-based, 5-point CRC, membrane potential dye (AID 504840). The class given is functional.

Another test addresses T3, Protein RecA (Mycobacterium tuberculosis, UniProt P9WHJ3).
T3 sequence (P9WHJ3 whole entry): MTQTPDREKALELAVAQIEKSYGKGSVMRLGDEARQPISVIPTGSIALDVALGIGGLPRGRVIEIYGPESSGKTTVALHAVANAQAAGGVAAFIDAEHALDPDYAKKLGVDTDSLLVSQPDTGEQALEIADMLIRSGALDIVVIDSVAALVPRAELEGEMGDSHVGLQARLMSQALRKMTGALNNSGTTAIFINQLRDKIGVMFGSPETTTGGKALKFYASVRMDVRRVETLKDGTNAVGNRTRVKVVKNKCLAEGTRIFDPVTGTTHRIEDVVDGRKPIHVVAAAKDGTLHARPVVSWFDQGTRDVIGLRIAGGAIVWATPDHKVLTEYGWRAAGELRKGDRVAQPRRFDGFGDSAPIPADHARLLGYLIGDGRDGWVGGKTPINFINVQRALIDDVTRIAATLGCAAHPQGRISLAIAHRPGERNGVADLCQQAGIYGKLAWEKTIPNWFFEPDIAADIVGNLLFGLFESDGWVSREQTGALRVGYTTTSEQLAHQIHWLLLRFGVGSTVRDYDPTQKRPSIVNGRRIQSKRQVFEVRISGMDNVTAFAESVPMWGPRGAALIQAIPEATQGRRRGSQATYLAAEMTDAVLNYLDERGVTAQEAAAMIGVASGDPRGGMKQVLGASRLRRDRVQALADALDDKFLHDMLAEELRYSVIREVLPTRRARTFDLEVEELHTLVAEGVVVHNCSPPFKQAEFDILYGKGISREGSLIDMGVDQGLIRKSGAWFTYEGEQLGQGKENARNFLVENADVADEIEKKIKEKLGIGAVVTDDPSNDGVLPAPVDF
In words: Fluorescence Cell-Free Homogeneous Dose Retest to Identify Inhibitors of RecA-Intein Splicing Activity. [Related pubchem assays (depositor defined):AID2097, AID2223, AID489010, AID492950]. Type of test: functional.

The test system of the next test is Vero. In words: cells. Type of test: functional. The settings on record: Chlorocebus sabaeus.
The target in test [3] is T2, High affinity choline transporter 1. In words: CHT inhibitors, dose response, cell-based, 10-point CRC, membrane potential dye (AID 588401).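 Further: membrane potential dye fluorescence of choline-evoked depolarization via CHT.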 Type of test: functional.
A short description of test [4]: Shn3 3'UTR reporter inhibitors, dose response, cell-based, Clone20 osteoblasts, firefly luciferase, cherry-picked (AID 624132).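 Further: firefly luciferase luminescence from reporter carrying the Shn3 3'UTR in osteoblasts.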 Type of test: functional.
Test [5] in a line: HepG2 cell cytotoxicity, dose response, cytotoxicity control for Shn3 inhibitor project, CellTiter-Glo, cherry-picked (AID 624134). Type of test: functional, cell-based. On the technique in general: ATP-based viability assays read luminescence as a measure of living cells.
Test [6] is described as follows: control 3'UTR Renilla luciferase suppression, dose response, counter-screen for Shn3 inhibitor project, cell-based, Clone20-Shn3RL, cherry-picked (AID 624133). Type of test: functional. (In general: The purpose of a counterscreen is to sort out artefacts and off-target activity.)

Activity calls are given as the source filed them.

Usually AC50 stands for the concentration at which the activity in the assay is half-maximal. By IC50 is commonly meant the concentration that inhibits the measured activity by half. Usually EC50 stands for the concentration needed to bring the measured effect to its halfway point. As a reminder, the CC50 is the concentration that lowers cell viability or growth by half. Turning to `Cc1nnc(NC(=O)c2nc(S(=O)(=O)Cc3ccccc3)ncc2Cl)s1`, the AC50 is 17.8 µM (active) in test [1], 1.34 µM (active) in test [4], > 70 µM (inactive) in test [5] and 12.8 µM (active) in test [6]. Further, the IC50 was 7.31 µM (active) in test [2] and 4.47 µM (active) in test [3]. Also, the EC50 on Protein RecA is 4.01 µM (active). In addition, the CC50 with Vero was 17.8 µM (active).
